Common to all, as to assay: relative viability (nuclei count vs DMSO), 5 days (fraction); higher = more cells survive
Compound in the assay “Ispinesib + Alpelisib”: Cc1ccc(C(=O)N(CCCN)[C@@H](c2nc3cc(Cl)ccc3c(=O)n2Cc2ccccc2)C(C)C)cc1 [Ispinesib] + Cc1nc(NC(=O)N2CCC[C@H]2C(N)=O)sc1-c1ccnc(C(C)(C)C(F)(F)F)c1 [Alpelisib] (partner 2 µM)
An outline of the steps: (§1)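 Relative viability is defined as nuclei in treated wells over nuclei in vehicle wells. Duplicate plates were run and medians reported. Lung cancer cell lines in 1536-well plates were dosed by pin tool one day after seeding, with one drug or with a fixed anchor-drug dose plus five library-drug doses (not always all listed) in √10 steps, and nuclei were counted after 5 days.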

Compound in the assay “Ispinesib + Palbociclib”: Cc1ccc(C(=O)N(CCCN)[C@@H](c2nc3cc(Cl)ccc3c(=O)n2Cc2ccccc2)C(C)C)cc1 [Ispinesib] + CC(=O)c1c(C)c2cnc(Nc3ccc(N4CCNCC4)cn3)nc2n(C2CCCC2)c1=O [Palbociclib] (partner 0.5 µM)
An outline of the steps: as §1

Compound in the assay “Ispinesib + Tozasertib”: Cc1ccc(C(=O)N(CCCN)[C@@H](c2nc3cc(Cl)ccc3c(=O)n2Cc2ccccc2)C(C)C)cc1 [Ispinesib] + Cc1cc(Nc2cc(N3CCN(C)CC3)nc(Sc3ccc(NC(=O)C4CC4)cc3)n2)n[nH]1 [Tozasertib] (partner 0.1 µM)
In outline:
as §1

Compound in the assay “Ispinesib + Bortezomib”: Cc1ccc(C(=O)N(CCCN)[C@@H](c2nc3cc(Cl)ccc3c(=O)n2Cc2ccccc2)C(C)C)cc1 [Ispinesib] + CC(C)C[C@H](NC(=O)[C@H](Cc1ccccc1)NC(=O)c1cnccn1)B(O)O [Bortezomib] (partner 0.002 µM)
In outline: as §1

Drawing on the supplement of paper PMC10307832, this text covers relative viability for one cell line.

As to UMC-11, the relative viability with Ispinesib + Alpelisib (first compound 0.001 µM) was 0.944; with Ispinesib + Alpelisib (first compound 0.003162 µM), 1.09; with Ispinesib + Alpelisib (first compound 0.01 µM), 0.99; with Ispinesib + Alpelisib (first compound 0.03162 µM), 0.351; in the assay with Ispinesib + Alpelisib (first compound 0.1 µM), 0.282; with Ispinesib + Palbociclib (first compound 0.001 µM) it was 0.336. For the same cell line, the relative viability with Ispinesib + Palbociclib (first compound 0.003162 µM) was 0.311; in the assay with Ispinesib + Palbociclib (first compound 0.01 µM), 0.309; with Ispinesib + Palbociclib (first compound 0.03162 µM), 0.217; in the assay with Ispinesib + Palbociclib (first compound 0.1 µM) it was 0.237; with Ispinesib + Tozasertib (first compound 0.001 µM), 0.201; in the assay with Ispinesib + Tozasertib (first compound 0.003162 µM), 0.201. Moreover, the relative viability was 0.212 with Ispinesib + Tozasertib (first compound 0.01 µM); 0.189 with Ispinesib + Tozasertib (first compound 0.03162 µM); 0.205 with Ispinesib + Tozasertib (first compound 0.1 µM); 0.505 with Ispinesib + Bortezomib (first compound 0.001 µM); 0.72 in the assay with Ispinesib + Bortezomib (first compound 0.003162 µM); 0.657 with Ispinesib + Bortezomib (first compound 0.01 µM). Further, the results for the relative viability with Ispinesib + Bortezomib (first compound 0.03162 µM) and in the assay with Ispinesib + Bortezomib (first compound 0.1 µM) were 0.207 and 0.183, respectively.
